Consider 33 compounds from the Deep4Chem optical property database.

Structures are written as SMILES.

The nature of this data set: solvent given as SMILES.

Turning to `CC(C)(C)c1ccc2c(c1)c1cc(C(C)(C)C)ccc1n2-c1ccc(C#Cc2ccc(C#Cc3ccc(C=C(C#N)C#N)cc3)cc2)cc1`, for the setting “in ClCCl”, the absorption maximum worked out at 382 nm.

As for `F[B-]1(F)OC(c2ccccc2)=Nc2sc(-c3ccccc3)n[n+]21`, the absorption maximum is listed as 332 nm (in C1CCOC1); 330 nm (in CC#N); 328 nm (in CCO); 331 nm (in CCOC(C)=O); 337 nm (in Cc1ccccc1); 335 nm (in ClC(Cl)Cl). The absorption maximum (in ClCCl) amounted to 333 nm.

Take `CN1C2=Nc3n(C)c4ccccc4[n+]3CN2c2ccccc21`: the absorption maximum (in CO) came to 339 nm.

For the setting “in C1CCOC1”, `CCCCCCCCCc1c2ccccc2cc2c1oc1c3c(c4ccccc4c12)-c1c(c2oc4cc5ccccc5cc4c2c2ccccc12)OCO3` came in with an absorption maximum of 397 nm.

In turn, `CCCCCCn1c2cc(/C=C/c3ccccc3)ccc2c2ccc(/C=C/c3ccccc3)cc21` gave an absorption maximum (in ClC(Cl)Cl) of 390.62 nm.

Regarding `CCN(CC)c1ccc2c(-c3ccccc3C(=O)O)c3c([o+]c2c1)/C(=C/c1ccc(N(C)C)cc1)CCC3`, the absorption maximum (in ClCCl) was determined as 689 nm.

In the case of `CC1=C(Cc2ccccc2)C(C)=[N+]2C1=C(C)c1c(C)c(-c3csc(N4CCOCC4)n3)c(C)n1[B-]2(F)F`, the absorption maximum is, setting by setting: (in C1CCOC1) 525 nm; (in C1COCCO1) 524 nm; (in CC#N) 517 nm; (in CC(C)O) 518 nm; (in CCO) 516 nm; (in CCOC(C)=O) 523 nm. Besides, the absorption maximum is 526 nm (in CN(C)C=O); 514 nm (in CO); 522 nm (in CS(C)=O); 527 nm (in Cc1ccccc1); 523 nm (in ClC(Cl)Cl); 522 nm (in ClCCl).

`c1cc2ccc3cc4[nH]ccc4c4ccc(c1)c2c34`: the absorption maximum (in CCOC(C)=O) is listed as 384 nm.

As for `CCOC(=O)/N=c1/oc2cc(N(CC)CC)ccc2cc1C#N`, for the setting “in ClCCl”, the absorption maximum is reported as 440 nm.

`c1ccc(N(c2ccccc2)c2ccc(-c3ccc(-c4nc(-c5ccccn5)n(-c5ccccc5)n4)cc3)cc2)cc1` registered an absorption maximum (in ClCCl) of 349 nm.

As for `CCCCCCCCN1c2ccc(C#Cc3cc(C(F)(F)F)cc(C(F)(F)F)c3)cc2Sc2cc(C=O)ccc21`, the absorption maximum is, setting by setting: (in C1CCOC1) 382 nm; (in CC#N) 386 nm; (in CCCCCC) 372 nm; (in CO) 366 nm; (in CS(C)=O) 396 nm; (in Cc1ccccc1) 381.01 nm. Also, for the setting “in ClC(Cl)Cl”, the absorption maximum came to 386 nm.

For the setting “in C1CCOC1”, `C(=C(c1ccccc1)c1ccccc1)c1ccc(-c2cc(-c3ccc(C=C(c4ccccc4)c4ccccc4)cc3)c(-c3ccc(C=C(c4ccccc4)c4ccccc4)cc3)cc2-c2ccc(C=C(c3ccccc3)c3ccccc3)cc2)cc1` displayed an absorption maximum of 330 nm.

For the compound `Cc1ccccc1`, the absorption maximum (in C1CCCCC1) is reported as 256.48 nm.

Turning to `CCCCc1cc(-c2cccc(COC)c2)oc1-c1cccc(-c2oc(-c3cccc(COC)c3)cc2CCCC)c1`, the absorption maximum (in ClC(Cl)Cl) stood at 334 nm.

For the setting “in C1CCCCC1”, `CB1C=Cc2ccc3ccccc3c2N1` gave an absorption maximum of 352 nm.

`COc1ccc(C2=C3C=CC(=[N+](C)C)C=C3[Si](C)(C)c3cc(N(C)C)ccc32)c(OC)c1`: the absorption maximum (in O) is on record as 649 nm.

Turning to `Cc1csc2[n+]1[B-](F)(F)n1c(c3cccc4cccc1c43)=N2`, the absorption maximum is, setting by setting: (in C1CCOC1) 476 nm; (in CC#N) 470 nm; (in CCCCCC) 477 nm; (in Cc1ccccc1) 479 nm; (in ClCCl) 445 nm.

For the setting “in ClCCl”, `C(=C\c1cc(/C=C/c2ccccc2)cc(/C=C/c2ccccc2)c1)/c1ccccc1` came in with an absorption maximum of 317 nm.

`CCC1=C(C)C2=Cc3c4ccccc4c4n3[B-](c3ccncc3)(Oc3ccccc3-4)[N+]2=C1C=Cc1ccc(OC)cc1` (stereo unspecified): the absorption maximum reads like this: (in CC#N) 690 nm; (in CCCCCC) 698 nm; (in Cc1ccccc1) 703 nm; (in ClCCl) 699 nm.

For the compound `O=[N+]([O-])c1ccc(-c2nc3c(c4c2-c2ccccc2CC4)-c2ccccc2CC3)cc1`, the absorption maximum is 350 nm (in C1CCOC1); 345 nm (in CC#N); 339 nm (in CCCCCC); 339 nm (in CCOC(C)=O); 334 nm (in CO); 352 nm (in CS(C)=O). The compound also gave an absorption maximum (in Cc1ccccc1) of 351 nm and an absorption maximum (in ClCCl) of 353 nm.

For the compound `CCCCc1ccc2ccc3c(CCCC)cc(CCCC)c4ccc1c2c34`, the absorption maximum is, setting by setting: (in CCCCCC) 352 nm; (in CO) 351 nm; (in ClCCl) 354 nm.

For the setting “in CCO”, `CCOC(=O)c1cc(C(=O)OCC)c2cc(C(=O)O)ccc2n1` registered an absorption maximum of 316 nm.

`COc1ccc(-c2nc(N)nc(C#N)c2C#N)cc1OC`: the absorption maximum by setting is: (in C1COCCO1) 347 nm; (in CC#N) 359 nm; (in CC(C)=O) 348 nm; (in CCO) 350 nm; (in CCOC(C)=O) 356 nm; (in CO) 346 nm.

Take `CCNc1cc2oc(=O)c3c(=O)oc4ccccc4c3c2cc1C`: the absorption maximum reads like this: (in CS(C)=O) 454 nm; (in ClCCl) 441 nm.

As for `Cc1ccc(-c2c3ccc([nH]3)c3nc(c(-c4ccc(C#N)cc4)c4ccc([nH]4)c4ccc([nH]4)c(-c4ccc(C)cc4)c4ccc2o4)C=C3)cc1`, the absorption maximum is, setting by setting: (in C1CCOC1) 451 nm; (in Cc1ccccc1) 452 nm; (in c1ccccc1) 452 nm.

As to `CCN(CC)c1ccc(C=Cc2nc3nc4ccccc4nc3s2)cc1`, the absorption maximum (in CO) came out at 490 nm.

In turn, `OCc1cc2c(cc3ccc4cccc5ccc2c3c45)[nH]1` gave an absorption maximum (in CCOC(C)=O) of 388 nm.

For the compound `Cc1cc2ccccc2c2c1c1ccccc1n2-c1ccc(N(c2ccccc2)c2ccccc2)cc1`, the absorption maximum (in ClCCl) came out at 304 nm.

As for `c1ccc2c(c1)oc1nc3oc4ccc(-n5c6ccccc6c6ccccc65)cc4c3cc12`, the absorption maximum (in ClC(Cl)Cl) was found to be 346 nm.

With `CCOC(=O)C1=C(C)NC2=C(C(=O)c3ccccc32)C1c1ccc(N(C)C)cc1` (stereo unspecified), the absorption maximum reads like this: (in C1CCOC1) 374 nm; (in C1COCCO1) 373 nm; (in CC#N) 379 nm; (in CCO) 395 nm; (in CN(C)C=O) 385 nm; (in CO) 389 nm. For the same compound, the absorption maximum turned out to be 400 nm (in CS(C)=O), 371 nm (in ClC(Cl)(Cl)Cl), 383 nm (in ClC(Cl)Cl) and 387 nm (in ClCCl).

Compound `Cc1cccc(C)c1-c1cc2c(C)c3c4cc5nc6ccc7c8c(C)c9cc(-c%10c(C)cccc%10C)c(-c%10c(C)cccc%10C)cc9c(C)c8c7c6nc5cc4c3c(C)c2cc1-c1c(C)cccc1C` displayed an absorption maximum (in ClC(Cl)Cl) of 487 nm.

In the case of `CCCC1=Cc2nc1ccc1[nH]c(cc1CCC)c1nc(c(NC(=O)CCCC(=O)O)cc3[nH]c2cc3CCC)C(CCC)=C1`, the absorption maximum (in ClCCl) is 636 nm.

Take `CN1CCN(CCCN2c3ccccc3Sc3ccc(Cl)cc32)CC1`: the absorption maximum amounted to 314 nm (in CC#N), 313 nm (in CO) and 309 nm (in O).
